# Experimental data published in US7271158B2, “Treatment of rumen acidosis with α-amylase inhibitors” (Pfizer Inc., priority 2000, dated 2007).
# Tests used:
# E. faecium = assay: Minimum inhibitory concentrations in aerobes (agar dilution)
# S. aureus = assay: as above
# [1] = test system: lactating cows in which chronic acidosis had been induced; assay: Efficacy of acarbose in lactating dairy cattle (induced chronic acidosis); format: in vivo, Holstein/Friesian cows
# Description: Efficacy of Acarbose in Lactating Dairy Cattle The study measured the effect of acarbose on rumen pH, milk yield and milk composition in lactating cows in which chronic acidosis had been induced by offering a highly fermentable diet. The study included measurement of rate of adaptation to the introduction and removal of acarbose. Experimental animals were six lactating multiparous Holstein/Friesian cows between 5 and 11 years of age and 500-750 kg, with permanent rumen cannulas. The animals started the experiment in early lactation, but not before peak lactation, to allow greater experimental sensitivity. The principal measurements in this study were pH in the ventral sac of the rumen, milk yield and milk composition. DESIGN: Animals enrolled into the study received test article for 21 consecutive days from the start time points described below. [table] Masking/Bias-Reducing Methods: Six lactating multiparous Holstein/Friesian cows were enrolled on to the study on Day-1. Animals were paired based on their calving date (cows with similar dates paired together). Within each pair, one animal received […] and the other […]. The treatment was assigned at random. […] The mean intake over the last 5 days of the preliminary period was calculated and this mean amount was offered to each animal throughout the trial. […] Fresh weight of TMR offered and refused was recorded daily for each animal. During non-measurement weeks ([…] period and adaptation weeks 1 and 2 in each experimental period), dry matter (DM) of main forage components (grass and maize […] determined approximately weekly (or more frequently if it appears necessary from visual assessment of the silage). For measurement weeks (i.e. week 3 in each experimental period), the DM of the TMR were measured daily for the last 5 days while a bulk of each of the individual TMR components (grass silage, maize silage, concentrate mix, ground wheat) were prepared from the same 5 days for subsequent diet analysis (i.e. one sample of each main feed per period). […]
# E. coli = assay: Minimum inhibitory concentrations in aerobes (agar dilution); format: cell-based; details: Escherichia coli
structure (smiles),measurement,setting,value
"CC1OC(OC2C(CO)OC(OC3C(CO)OC(O)C(O)C3O)C(O)C2O)C(O)C(O)C1NC1C=C(CO)C(O)C(O)C1O (centres unmarked) [Acarbose, acarbose]",MIC,E. faecium; E. faecium 1.1.6,>128 µg/mL
same,MIC,E. faecium; E. faecium 1.2.4,>128 µg/mL
same,MIC,E. faecium; E. faecium 1.2.6,>128 µg/mL
same,MIC,E. faecium; E. faecium 3.1,>128 µg/mL
same,MIC,E. faecium; E. faecium 4.5,>128 µg/mL
same,MIC,E. faecium; E. faecium 5.4,>128 µg/mL
same,MIC,E. faecium; E. faecium 10.1,>128 µg/mL
same,MIC,E. faecium; E. faecium 28.6.7,>128 µg/mL
same,MIC,E. faecium; E. faecium 28.7.7,>128 µg/mL
same,MIC,E. faecium; Enterococcus faecium,> 128 µg/mL
same,MIC,S. aureus; S. aureus 3.4,>128 µg/mL
same,MIC,S. aureus; S. aureus 3.5,>128 µg/mL
same,MIC,S. aureus; S. aureus 5.1,>128 µg/mL
same,MIC,S. aureus; S. aureus 6.1,>128 µg/mL
same,MIC,S. aureus; S. aureus 8.2,>128 µg/mL
same,MIC,S. aureus; S. aureus 8.3,>128 µg/mL
same,MIC,S. aureus; S. aureus 9.3,>128 µg/mL
same,MIC,S. aureus; S. aureus 10.3,>128 µg/mL
same,MIC,S. aureus; S. aureus 10.4,>128 µg/mL
same,MIC,S. aureus; Staphylococcus aureus,> 128 µg/mL
same,MIC,"S. aureus; Staphylococcus aureus, NCTC6571",> 128 µg/mL
same,proportion of fat in the milk,"[1]; treated animals, acarbose 15 g per day (control 32.8 g/L)",46.1 g/L
same,milk fat,"[1]; treated animals, acarbose 15 g per day (control average 1033 grams per day)",1281 grams per day
same,average time below pH 5.5 (rumen),"[1]; treatment periods, acarbose 15 g per day in feed supplement (control periods 4.3 hours)",3.4 hours
same,MIC,"E. coli; ATCC10418, E. coli ATCC 10418",> 128 µg/mL
same,MIC,E. coli; E. coli E517,> 128 µg/mL
